Assay results as given in ChEMBL document CHEMBL3885861, “Open TG-GATES”.

Organism: Rattus norvegicus
Assay: Open TG-GATES - Regimen: Daily Repeat
Format: toxicity, organism-based, Sprague-Dawley
Design: regimen Daily Repeat, gender Male, age 6 weeks
Details: in vivo, po, 20 mg/kg, route gavage, dose level Low; for APTT / Bas / Eos / Fbg / Hb / Ht / Lym / MCH / MCHC / MCV / Mono / Neu / PT / Plat / RBC / Ret / WBC: tissue Blood
[1] = 72 h, tissue Kidney, time 3 day
[2] = 72 h, tissue Plasma, time 3 day

Q: How did the TERMINAL_BW (72 h, time 3 day) turn out when `CC(CN1c2ccccc2Sc2ccccc21)N(C)C` (stereo unspecified) [PROMETHAZINE] was run?
A: 231 g

Q: What about the APTT (72 h, time 3 day) of the same compound?
A: 22 s

Q: What about the Bas (72 h, time 3 day) of the same compound?
A: 0%

Q: What about the Eos (72 h, time 3 day) of the same compound?
A: 1%

Q: What about the Fbg (72 h, time 3 day) of the same compound?
A: 314.4 mg/dL

Q: What about the Hb (72 h, time 3 day) of the same compound?
A: 13.3 g/dL

Q: And the Ht (72 h, time 3 day)?
A: 40.4%

Q: What about the Lym (72 h, time 3 day) of the same compound?
A: 77.2%

Q: And the MCH (72 h, time 3 day)?
A: 20.7 pg

Q: What about the MCHC (72 h, time 3 day) of the same compound?
A: 33.1%

Q: What about the MCV (72 h, time 3 day) of the same compound?
A: 62.7 fL

Q: And the Mono (72 h, time 3 day)?
A: 2.4%

Q: What about the Neu (72 h, time 3 day) of the same compound?
A: 18.6%

Q: And the PT (72 h, time 3 day)?
A: 16.2 s

Q: What about the Plat (72 h, time 3 day) of the same compound?
A: 125.4 x10_4/uL

Q: What about the RBC (72 h, time 3 day) of the same compound?
A: 644.6 x10_4/ul

Q: And the Ret (72 h, time 3 day)?
A: 6.8%

Q: What about the WBC (72 h, time 3 day) of the same compound?
A: 97.3 x10_2/uL

Q: And the KIDNEY_L [1]?
A: 1 g

Q: And the KIDNEY_R [1]?
A: 1.1 g

Q: What about the KIDNEY_TOTAL [1] of the same compound?
A: 2.1 g

Q: And the LIVER (72 h, tissue Liver, time 3 day)?
A: 11.5 g

Q: What about the A/G [2] of the same compound?
A: 1.2

Q: What about the ALP [2] of the same compound?
A: 1570.4 IU/L

Q: And the ALT [2]?
A: 48.2 IU/L

Q: What about the AST [2] of the same compound?
A: 75.2 IU/L

Q: And the BUN [2]?
A: 17.2 mg/dL

Q: What about the CRE [2] of the same compound?
A: 0.2 mg/dL

Q: What about the Ca [2] of the same compound?
A: 10.8 mg/dL

Q: What about the Cl [2] of the same compound?
A: 105.4 meq/L

Q: And the DBIL [2]?
A: 0 mg/dL

Q: What about the GLC [2] of the same compound?
A: 184 mg/dL

Q: What about the IP [2] of the same compound?
A: 7.1 mg/dL

Q: What about the K [2] of the same compound?
A: 4.3 meq/L

Q: What about the LDH [2] of the same compound?
A: 166.4 IU/L

Q: What about the Na [2] of the same compound?
A: 142 meq/L

Q: What about the PL [2] of the same compound?
A: 155.2 mg/dL

Q: What about the RALB [2] of the same compound?
A: 3.1 g/dL

Q: What about the TBIL [2] of the same compound?
A: 0.004 mg/dL

Q: And the TC [2]?
A: 78.2 mg/dL

Q: And the TG [2]?
A: 118.4 mg/dL

Q: And the TP [2]?
A: 5.7 g/dL

Q: What about the gamma-GTP [2] of the same compound?
A: 2 IU/L

Q: And the TERMINAL_BW ([…], time 7 day)?
A: 261 g

Q: What about the TERMINAL_BW ([…], time 14 day) of the same compound?
A: 292.3 g

Q: And the TERMINAL_BW ([…], time 28 day)?
A: 387.7 g

Q: What about the APTT ([…], time 7 day) of the same compound?
A: 22.6 s

Q: And the Bas ([…], time 7 day)?
A: 0%

Q: What about the Eos ([…], time 7 day) of the same compound?
A: 0.8%

Q: What about the Fbg ([…], time 7 day) of the same compound?
A: 282.6 mg/dL

Q: And the Hb ([…], time 7 day)?
A: 13.4 g/dL

Q: What about the Ht ([…], time 7 day) of the same compound?
A: 40.4%

Q: What about the Lym ([…], time 7 day) of the same compound?
A: 84.4%

Q: And the MCH ([…], time 7 day)?
A: 20.5 pg

Q: What about the MCHC ([…], time 7 day) of the same compound?
A: 33.3%

Q: What about the MCV ([…], time 7 day) of the same compound?
A: 61.5 fL

Q: And the Mono ([…], time 7 day)?
A: 2.4%

Q: What about the Neu ([…], time 7 day) of the same compound?
A: 11.6%

Q: And the PT ([…], time 7 day)?
A: 16 s

Q: What about the Plat ([…], time 7 day) of the same compound?
A: 114.7 x10_4/uL

Q: And the RBC ([…], time 7 day)?
A: 657.4 x10_4/ul

Q: And the Ret ([…], time 7 day)?
A: 5.4%

Q: What about the WBC ([…], time 7 day) of the same compound?
A: 125.4 x10_2/uL

Q: And the APTT ([…], time 14 day)?
A: 23.8 s

Q: And the Bas ([…], time 14 day)?
A: 0%

Q: And the Eos ([…], time 14 day)?
A: 1%

Q: And the Fbg ([…], time 14 day)?
A: 315 mg/dL

Q: What about the Hb ([…], time 14 day) of the same compound?
A: 14.7 g/dL

Q: What about the Ht ([…], time 14 day) of the same compound?
A: 42.6%

Q: And the Lym ([…], time 14 day)?
A: 79.6%

Q: And the MCH ([…], time 14 day)?
A: 19.8 pg

Q: And the MCHC ([…], time 14 day)?
A: 34.4%

Q: And the MCV ([…], time 14 day)?
A: 57.6 fL

Q: What about the Mono ([…], time 14 day) of the same compound?
A: 2%

Q: What about the Neu ([…], time 14 day) of the same compound?
A: 16.6%

Q: And the PT ([…], time 14 day)?
A: 15.8 s

Q: And the Plat ([…], time 14 day)?
A: 112 x10_4/uL

Q: And the RBC ([…], time 14 day)?
A: 740.6 x10_4/ul

Q: And the Ret ([…], time 14 day)?
A: 4.2%

Q: What about the WBC ([…], time 14 day) of the same compound?
A: 109.3 x10_2/uL

Q: And the APTT ([…], time 28 day)?
A: 23.6 s

Q: And the Bas ([…], time 28 day)?
A: 0%

Q: And the Eos ([…], time 28 day)?
A: 1%

Q: What about the Fbg ([…], time 28 day) of the same compound?
A: 297.6 mg/dL

Q: And the Hb ([…], time 28 day)?
A: 15 g/dL

Q: And the Ht ([…], time 28 day)?
A: 43.5%
